# Legend:
# Test in all cases: selective drug sensitivity score (sDSS, relative to normal bone marrow) (sDSS (score)); higher = more potent and effective on the cell line relative to normal bone marrow cells
# Details in all cases: 72 h
# [1] = system: NALM-16
# [2] = system: CCRF-CEM
# [3] = system: KASUMI-9
# 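Note: ALL cell lines in 384-well plates, five doses spanning 10,000-fold, each plate scaled between vehicle and 100 µmol/L benzalkonium chloride controls, sDSS an adapted area-under-curve metric.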
Compound,selective drug sensitivity score [1],selective drug sensitivity score [2],selective drug sensitivity score [3]
Cc1c(-c2ccc(N3CCc4cccc(C(=O)Nc5nc6ccccc6s5)c4C3)nc2C(=O)O)cnn1CC12CC3CC(CC(C3)C1)C2 (top concentration 1000 nM),-2.26,18.6,-2.26
O=C(NOC[C@H](O)CO)c1ccc(F)c(F)c1Nc1ccc(I)cc1F (top concentration 1000 nM),2.74,1.14,4.44
CO[C@@H](C)Cn1c(=O)n(C)c2cnc3ccc(-c4cncc(C(C)(C)O)c4)cc3c21 (top concentration 2500 nM),-0.52,8.48,8.68
Cc1cccc(CC(=O)N2CCc3c2ccc(-c2cn(C)c4ncnc(N)c24)c3F)n1 (top concentration 2500 nM),-0.68,-0.08,2.92
CNC(=O)c1ccccc1Nc1nc(Nc2ccc3c(c2OC)CCC[C@H](N2CCN(CCO)CC2)C3)ncc1Cl (top concentration 5000 nM),-2.44,-2.54,0.26
COc1cc2ncnc(Oc3cccc(NC(=O)Nc4cc(C(C)(C)C(F)(F)F)on4)c3)c2cc1OC (top concentration 10000 nM),0,0.1,7.5
C[C@@H](Oc1cc(-n2cnc3ccc(CN4CCN(C)CC4)cc32)sc1C(N)=O)c1ccccc1C(F)(F)F (top concentration 10000 nM),17.4,22.7,26
Nc1nccc(-c2c(-c3ccc(F)cc3)ncn2C2CCCCC2)n1 (top concentration 10000 nM),0.9,0.7,1.7
O=C(O)c1ccc(-c2c[nH]c3ncc(-c4ccccc4)cc23)cc1C1CCCC1 (top concentration 10000 nM),-1.44,3.66,0.66
C[C@@H]1CN(CC(=O)Nc2ccc3c(c2)Cc2cccc(-c4cc(=O)cc(N5CCOCC5)o4)c2S3)C[C@H](C)O1 (top concentration 25000 nM),-2.18,2.62,1.22
COc1ccc2[nH]cc(/C=C3\C(=O)Nc4ccc(NC(=O)CCN5CCCCC5)cc43)c2c1 (top concentration 50000 nM),-2.42,-0.02,1.28
Cc1nn(C)c(COc2ccc(N3CCN(S(=O)(=O)N(C)C)CC3)cc2)c1-c1cccc2c(CCCOc3cccc4ccccc34)c(C(=O)O)n(CCN3CCOCC3)c12 (top concentration 50000 nM),4.36,9.06,5.66
C[C@H](Nc1ncnc2[nH]cnc12)c1cc2ccc(F)cc2nc1-c1ccccn1 [AMG319] (top concentration 1000 nM),-1.42,-1.42,1.18
C=CCn1c(=O)c2cnc(Nc3ccc(N4CCN(C)CC4)cc3)nc2n1-c1cccc(C(C)(C)O)n1 [AZD1775] (top concentration 10000 nM),6.64,14.2,14.6
NC(=O)Nc1cc(-c2cccc(F)c2)sc1C(=O)N[C@H]1CCCNC1 [AZD7762] (top concentration 1000 nM),0.5,-0.1,4.1
Cc1cc([C@@H](C)Nc2ccccc2C(=O)O)c2nc(N3CCOCC3)cc(=O)n2c1 [AZD-6482] (top concentration 2500 nM),0.42,2.02,5.82
CN(C)Cc1c(C(=O)NCCOc2ccc(C(=O)NO)cc2)oc2ccccc12 [Abexinostat] (top concentration 10000 nM),0.56,4.56,8.26
S=C(NCc1ccc2c(c1)OCO2)N1CCN(c2ncnc3c2oc2ccccc23)CC1 [Amuvatinib] (top concentration 10000 nM),0.86,1.56,1.26
CC(=O)OC[C@H]1O[C@@H]([S-])[C@H](OC(C)=O)[C@@H](OC(C)=O)[C@@H]1OC(C)=O.CCP(CC)CC.[Au+] [Auranofin] (top concentration 2500 nM),-0.56,2.74,3.94
CNC(=O)c1ccccc1Sc1ccc2c(/C=C/c3ccccn3)n[nH]c2c1 [Axitinib] (top concentration 10000 nM),-2.34,9.26,8.36

Compound,selective drug sensitivity score [1],selective drug sensitivity score [2],selective drug sensitivity score [3]
Cc1c(N)nc([C@H](CC(N)=O)NC[C@H](N)C(N)=O)nc1C(=O)N[C@H](C(=O)N[C@H](C)[C@@H](O)[C@H](C)C(=O)N[C@H](C(=O)NCCc1nc(-c2nc(C(=O)NCCC[S+](C)C)cs2)cs1)[C@@H](C)O)[C@@H](O[C@@H]1O[C@@H](CO)[C@@H](O)[C@H](O)[C@@H]1O[C@H]1O[C@H](CO)[C@@H](O)[C@H](OC(N)=O)[C@@H]1O)c1c[nH]cn1 [Bleomycin] (top concentration 10000 nM),-1.86,1.04,6.24
CC(C)C[C@H](NC(=O)[C@H](Cc1ccccc1)NC(=O)c1cnccn1)B(O)O [Bortezomib] (top concentration 1000 nM),2.32,6.52,3.22
CCC/C=C/C=C/C(=O)O[C@H]1/C(=C/C(=O)OC)C[C@H]2C[C@H]([C@@H](C)O)OC(=O)C[C@H](O)C[C@@H]3C[C@H](OC(C)=O)C(C)(C)[C@](O)(C[C@@H]4C/C(=C/C(=O)OC)C[C@H](/C=C/C(C)(C)[C@]1(O)O2)O4)O3 [Bryostatin_1] (top concentration 100 nM),-6.92,-7.12,25.1
CO[C@H]1CC[C@H](N2C(=O)CNc3ncc(-c4ccc(C(C)(C)O)nc4)nc32)CC1 [CC-223] (top concentration 10000 nM),0.72,4.42,5.12
CN(C)c1cc2c(cc1Sc1nc3c(N)nccc3n1CCNCC(C)(C)C)OCO2 [CUDC-305] (top concentration 10000 nM),1.12,3.32,0.22
CO[C@H]1C(=O)[C@]2(C)[C@@H](OC)C[C@H]3OC[C@@]3(OC(C)=O)[C@H]2[C@H](OC(=O)c2ccccc2)[C@]2(O)C[C@H](OC(=O)[C@H](O)[C@@H](NC(=O)OC(C)(C)C)c3ccccc3)C(C)=C1C2(C)C [Cabazitaxel] (top concentration 1000 nM),11.4,20.5,18.7
C=CC(=O)Nc1cc2c(Nc3ccc(F)c(Cl)c3)ncnc2cc1OCCCN1CCOCC1 [Canertinib] (top concentration 10000 nM),-0.14,1.56,3.76
CC(C)C[C@H](NC(=O)[C@H](CCc1ccccc1)NC(=O)CN1CCOCC1)C(=O)N[C@@H](Cc1ccccc1)C(=O)N[C@@H](CC(C)C)C(=O)[C@@]1(C)CO1 [Carfilzomib] (top concentration 1000 nM),-3.64,4.86,1.76
O=C(c1ccc(F)c(F)c1Nc1ccc(I)cc1F)N1CC(O)([C@@H]2CCCCN2)C1 [Cobimetinib] (top concentration 1000 nM),-1.38,-3.58,-2.38
COc1c(OCCCN2CCOCC2)ccc2c1N=C(NC(=O)c1cnc(N)nc1)N1CCN=C21 [Copanlisib] (top concentration 1000 nM),2.58,10.2,5.98
Cn1c(=O)n(-c2ccc(C(C)(C)C#N)cc2)c2c3cc(-c4cnc5ccccc5c4)ccc3ncc21 [Dactolisib] (top concentration 1000 nM),0.86,12.9,10.3
O=C(/C=C/c1cccnc1)NCCCCC1CCN(C(=O)c2ccccc2)CC1 [Daporinad] (top concentration 1000 nM),2.96,8.56,16.2
CC(=O)N(O)CCCCCNC(=O)CCC(=O)N(O)CCCCCNC(=O)CCC(=O)N(O)CCCCCN [Deferoxamine] (top concentration 10000 nM),4.66,6.86,1.16
Cc1cc(Nc2cc(N3CCN(C)CC3)nc(/C=C/c3ccccc3)n2)n[nH]1 [ENMD-2076] (top concentration 10000 nM),-0.06,5.04,9.24
Cc1cnc(Nc2ccc(OCCN3CCCC3)cc2)nc1Nc1cccc(S(=O)(=O)NC(C)(C)C)c1 [Fedratinib] (top concentration 10000 nM),-2.16,-1.76,-0.86
COc1ccc(-c2nc(N3CCOCC3)c3sc(CN(C)c4ncc(C(=O)NO)cn4)cc3n2)cn1 [Fimepinostat (CUDC-907)] (top concentration 10000 nM),1.78,6.88,10.7
CCOC(=O)CCNc1cc(N2CCc3ccccc3CC2)nc(-c2ccccn2)n1 [GSK-J4] (top concentration 100000 nM),-8.38,-6.68,-7.88
Cc1cc(Nc2cc(CN3CCOCC3)c3nc(C)c(Cc4ccc(Cl)cc4F)n3n2)n[nH]1 [Gandotinib] (top concentration 10000 nM),-1.52,5.68,9.88
NC(=O)NO [Hydroxyurea] (top concentration 1000000 nM),0.86,3.96,4.26
Cc1ccc(NC(=O)c2ccc(CN3CCN(C)CC3)cc2)cc1Nc1nccc(-c2cccnc2)n1 [Imatinib] (top concentration 10000 nM),-0.44,-0.44,-0.44

# Source: the supplement of paper PMC8967900
